From US8461083B2, “Herbicidal compounds” (Syngenta Limited, priority 2008, dated 2013)

Legend:
Format in all cases: in vivo
Setaria faberi (SETFA) [1] = assay: Pre-emergence herbicidal glasshouse test; conditions: pre-emergence (sprayed after one day cultivation), evaluated after 13 days, 100=total damage to plant, 0=no damage to plant; for PRE Application SETFA, damage to plant: 1000 g/ha; for pest or weed control at 1000 g/ha: Setaria faberi, 312 h, read-out: PRE Application SETFA, damage to plant
In short: (§1)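 Rates of 1000 g/ha are applied as an acetone/water (50:50) spray with 0.5% Tween 20 to soil-sown pots, pre-emergence at day 1 or post-emergence at day 8. Percent damage is assessed after 13 days.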

[2] = tested on: Alopecurus myosuroides (ALOMY); assay: Pre-emergence herbicidal glasshouse test; conditions: pre-emergence (sprayed after one day cultivation), evaluated after 13 days, 100=total damage to plant, 0=no damage to plant; for PRE Application ALOMY, damage to plant: 1000 g/ha; for pest or weed control at 1000 g/ha: Alopecurus myosuroides, 312 h, read-out: PRE Application ALOMY, damage to plant
In short: as §1

[3] = tested on: Amaranthus retoflexus (AMARE); assay: Pre-emergence herbicidal glasshouse test; conditions: pre-emergence (sprayed after one day cultivation), evaluated after 13 days, 100=total damage to plant, 0=no damage to plant; for PRE Application AMARE, damage to plant: 1000 g/ha; for pest or weed control at 1000 g/ha: Amaranthus retroflexus, 312 h, read-out: PRE Application AMARE, damage to plant
In short: as §1

Solanum nigrum (SOLNI) [4] = assay: Pre-emergence herbicidal glasshouse test; conditions: pre-emergence (sprayed after one day cultivation), evaluated after 13 days, 100=total damage to plant, 0=no damage to plant; for PRE Application SOLNI, damage to plant: 1000 g/ha; for pest or weed control at 1000 g/ha: Solanum nigrum, 312 h, read-out: PRE Application SOLNI, damage to plant
In short: as §1

[5] = tested on: Echinochloa crus-galli (ECHCG); assay: Pre-emergence herbicidal glasshouse test; conditions: pre-emergence (sprayed after one day cultivation), evaluated after 13 days, 100=total damage to plant, 0=no damage to plant; for PRE Application ECHCG, damage to plant: 1000 g/ha; for pest or weed control at 1000 g/ha: Echinochloa crus-galli, 312 h, read-out: PRE Application ECHCG, damage to plant
In short: (§2)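 Spray at 1000 g/ha, acetone/water 50:50 + 0.5% Tween 20; pre-em 1 d post-sowing, post-em 8 d post-sowing. Glasshouse 24/16 °C, 14 h light, 65% RH, watered twice daily. Visual damage score 0–100 at 13 d.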

Setaria faberi (SETFA) [6] = assay: Post-emergence herbicidal glasshouse test; conditions: post-emergence (sprayed after 8 days cultivation), evaluated after 13 days, 100=total damage to plant, 0=no damage to plant; for POST Application SETFA, damage to plant: 1000 g/ha; for pest or weed control at 1000 g/ha: Setaria faberi, 312 h, read-out: POST Application SETFA, damage to plant
In short: as §1

[7] = tested on: Alopecurus myosuroides (ALOMY); assay: Post-emergence herbicidal glasshouse test; conditions: post-emergence (sprayed after 8 days cultivation), evaluated after 13 days, 100=total damage to plant, 0=no damage to plant; for POST Application ALOMY, damage to plant: 1000 g/ha; for pest or weed control at 1000 g/ha: Alopecurus myosuroides, 312 h, read-out: POST Application ALOMY, damage to plant
In short: as §1

[8] = tested on: Amaranthus retoflexus (AMARE); assay: Post-emergence herbicidal glasshouse test; conditions: post-emergence (sprayed after 8 days cultivation), evaluated after 13 days, 100=total damage to plant, 0=no damage to plant; for POST Application AMARE, damage to plant: 1000 g/ha; for pest or weed control at 1000 g/ha: Amaranthus retroflexus, 312 h, read-out: POST Application AMARE, damage to plant
In short: as §1

Solanum nigrum (SOLNI) [9] = assay: Post-emergence herbicidal glasshouse test; conditions: post-emergence (sprayed after 8 days cultivation), evaluated after 13 days, 100=total damage to plant, 0=no damage to plant; for POST Application SOLNI, damage to plant: 1000 g/ha; for pest or weed control at 1000 g/ha: Solanum nigrum, 312 h, read-out: POST Application SOLNI, damage to plant
In short: as §1

[10] = tested on: Echinochloa crus-galli (ECHCG); assay: Post-emergence herbicidal glasshouse test; conditions: post-emergence (sprayed after 8 days cultivation), evaluated after 13 days, 100=total damage to plant, 0=no damage to plant; for POST Application ECHCG, damage to plant: 1000 g/ha; for pest or weed control at 1000 g/ha: Echinochloa crus-galli, 312 h, read-out: POST Application ECHCG, damage to plant
In short: as §2

| SMILES | PRE Application SETFA, damage to plant (Setaria faberi (SETFA) [1]) | PRE Application ALOMY, damage to plant [2] | PRE Application AMARE, damage to plant [3] | PRE Application SOLNI, damage to plant (Solanum nigrum (SOLNI) [4]) | PRE Application ECHCG, damage to plant [5] | POST Application SETFA, damage to plant (Setaria faberi (SETFA) [6]) | POST Application ALOMY, damage to plant [7] | POST Application AMARE, damage to plant [8] | POST Application SOLNI, damage to plant (Solanum nigrum (SOLNI) [9]) | POST Application ECHCG, damage to plant [10] | pest or weed control at 1000 g/ha (Setaria faberi (SETFA) [1]) [%] | pest or weed control at 1000 g/ha [2] [%] | pest or weed control at 1000 g/ha [3] [%] | pest or weed control at 1000 g/ha (Solanum nigrum (SOLNI) [4]) [%] | pest or weed control at 1000 g/ha [5] [%] | pest or weed control at 1000 g/ha (Setaria faberi (SETFA) [6]) [%] | pest or weed control at 1000 g/ha [7] [%] | pest or weed control at 1000 g/ha [8] [%] | pest or weed control at 1000 g/ha (Solanum nigrum (SOLNI) [9]) [%] | pest or weed control at 1000 g/ha [10] [%] |
| --- | --- | --- | --- | --- | --- | --- | --- | --- | --- | --- | --- | --- | --- | --- | --- | --- | --- | --- | --- | --- |
| CN(Cc1nc2nc(C(F)(F)F)ccc2cc1C(=O)C1C(=O)CCCC1=O)S(C)(=O)=O [Compound 1.108, 2-[{methanesulfonyl-N-methylaminomethyl}-7-trifluoromethyl-[1,8]-naphthyridine-3-carbony]-cyclohexane-1,3-dione] | 40 | 0 | 80 | 90 | 70 | 80 | 20 | 70 | 90 | 80 |  |  |  |  |  |  |  |  |  |  |
| Cc1cc(Cn2c(=O)ccc3cc(C(=O)C4C(=O)CCCC4=O)c(C(F)(F)F)nc32)no1 [Compound 2.1] | 90 | 80 | 90 | 90 | 90 | 90 | 90 | 100 | 90 | 80 |  |  |  |  |  |  |  |  |  |  |
| O=C1CCCC(=O)C1C(=O)c1cc2ccc(=O)n(CCC=C(F)F)c2nc1C(F)(F)F [Compound 2.2, 2-{8-(4,4-difluorobut-3-enyl)-7-oxo-7,8-dihydro-2-trifluoromethyl-[1,8]-naphthyridine-3-carbony}-cyclohexane-1,3-dione] | 90 | 60 | 70 | 90 | 90 | 90 | 70 | 100 | 100 | 90 |  |  |  |  |  |  |  |  |  |  |
| N#CCn1c(=O)ccc2cc(C(=O)C3C(=O)CCCC3=O)c(C(F)(F)F)nc21 [Compound 2.3] | 60 | 20 | 90 | 90 | 80 | 90 | 20 | 90 | 90 | 80 |  |  |  |  |  |  |  |  |  |  |
| O=C1CCCC(=O)C1C(=O)c1cc2ccc(=O)n(CC(F)F)c2nc1C(F)(F)F [Compound 2.4, 2-{8-(2,2-difluoroethyl)-7-oxo-7,8-dihydro-2-trifluoromethyl-[1,8]-naphthyridine-3-carbony}-cyclohexane-1,3-dione] | 70 | 40 | 90 | 90 | 90 | 80 | 60 | 60 | 90 | 70 |  |  |  |  |  |  |  |  |  |  |
| O=C(Cn1c(=O)ccc2cc(C(=O)C3C(=O)CCCC3=O)c(C(F)(F)F)nc21)c1ccccc1 [Compound 2.6, 2-{8-(2-phenyl-2-oxo-ethyl)-7-oxo-7,8-dihydro-2-trifluoromethyl-[1,8]-naphthyridine-3-carbony}-cyclohexane-1,3-dione] | 10 | 20 | 60 | 90 | 40 | 70 | 40 | 90 | 90 | 70 |  |  |  |  |  |  |  |  |  |  |
| CC(C)(C)C(=O)Cn1c(=O)ccc2cc(C(=O)C3C(=O)CCCC3=O)c(C(F)(F)F)nc21 [Compound 2.7, 2-{8-(3,3-dimethyl-2-oxo-butyl)-7-oxo-7,8-dihydro-2-trifluoromethyl-[1,8]-naphthyridine-3-carbony}-cyclohexane-1,3-dione] | 40 | 30 | 60 | 100 | 80 | 70 | 40 | 70 | 100 | 70 |  |  |  |  |  |  |  |  |  |  |
| O=C1CCCC(=O)C1C(=O)c1cc2ccc(=O)n(C3CCCC3)c2nc1C(F)(F)F [Compound 2.8, 2-{8-cyclopentyl-7-oxo-7,8-dihydro-2-trifluoromethyl-[1,8]-naphthyridine-3-carbony}-cyclohexane-1,3-dione] |  |  |  |  |  |  |  |  |  |  | 70 | 30 | 80 | 90 | 70 | 90 | 70 | 70 | 90 | 80 |
| O=C1CCCC(=O)C1C(=O)c1cc2ccc(=O)n(CC3CC3)c2nc1C(F)(F)F [Compound 2.9, 2-{8-(cyclopropylmethyl)-7-oxo-7,8-dihydro-2-trifluoromethyl-[1,8]-naphthyridine-3-carbony}-cyclohexane-1,3-dione] | 90 | 60 | 60 | 90 | 100 | 90 | 90 | 100 | 90 | 90 |  |  |  |  |  |  |  |  |  |  |
| CC(C)n1c(=O)ccc2cc(C(=O)C3C(=O)CCCC3=O)c(C(F)(F)F)nc21 [Compound 2.10, 2-{8-isopropyl-7-oxo-7,8-dihydro-2-trifluoromethyl-[1,8]-naphthyridine-3-carbony}-cyclohexane-1,3-dione] |  |  |  |  |  |  |  |  |  |  | 80 | 50 | 80 | 90 | 90 | 90 | 80 | 100 | 100 | 90 |
| O=C1CCCC(=O)C1C(=O)c1cc2ccc(=O)n(CCF)c2nc1C(F)(F)F [Compound 2.11, 2-{8-(2-fluoroethyl)-7-oxo-7,8-dihydro-2-trifluoromethyl-[1,8]-naphthyridine-3-carbony}-cyclohexane-1,3-dione] | 90 | 40 | 60 | 100 | 100 | 90 | 90 | 100 | 100 | 90 |  |  |  |  |  |  |  |  |  |  |
